Patent US8329689B2 (priority 2006, dated 2012)
Structures can show the parent of a compound that is named as a salt. Where two headings read alike, the source gives them in different places.

What was measured:
virus influenza A = assay: microbe, parasite or virus in culture; type: cell-based; parameters: dose or concentration left out as unconfirmed; conditions: for inhibition: Influenza A virus, MDCK, dilution of virus 10^-3, read-out: % of inhibition of influenza A virus reproduction
[1] = tested on: virus of hepatitis C strain JFH-1 (genotype 2a); assay: microbe, parasite or virus in culture; type: cell-based; conditions: for Therapeutic index SI50 = TC50/IC50: HCV; for IC50: Hepatitis C virus, Huh-7.5.1, Huh7.5.1 cells, HCV JFH-1, 72 hours incubation, read-out: IC50 (IC50^HCV, antiviral activity)
in vitro = conditions: human
influenza virus = conditions: cited from earlier work
[2] = tested on: some other cellular lines; conditions: cited from earlier work

Structure (SMILES): CCOC(=O)c1c(CN2CCN(c3ccccc3)CC2)n(C2CCCCC2)c2cc(Br)c3c(c12)CN(C)CO3 [1.2(9)]
- inhibition (virus influenza A): 62%

Structure (SMILES): CCOC(=O)c1c(CN2CCC(C)CC2)n(Cc2ccccc2)c2cc(Br)c3c(c12)CN(C)CO3 [1.2(12)]
- inhibition (virus influenza A): 85%

Structure (SMILES): CCOC(=O)c1c(CSc2ccccc2)n(C)c2cc(C#N)c3c(c12)CN(C)CO3 [1.2(27)]
- inhibition (virus influenza A): < 50%

Structure (SMILES): CCOC(=O)c1c(CN2CCCC2)n(C2CCCCC2)c2cc(Br)c3c(c12)CN(C)CO3 [1.2(10)]
- inhibition (virus influenza A): 81%

Structure (SMILES): CCOC(=O)c1c(CSc2ccccc2)n(C)c2cc(C#N)c(O)c(CN3CCCC(CO)C3)c12 (centres unmarked) [1.1(11)]
- inhibition (virus influenza A): < 50%

Structure (SMILES): CCOC(=O)c1c(CSc2ccccc2)n(C)c2cc(-c3cccnc3)c(O)c(CN(C)C)c12 [1.2.1(5)]
- inhibition (virus influenza A): 100%

Structure (SMILES): CCOC(=O)c1c(CSc2ccccc2)n(C)c2cc(Br)c3c(c12)CN(CC)CO3 [1.2(31)]
- inhibition (virus influenza A): 100%

Structure (SMILES): CCOC(=O)c1c(C[S+]([O-])c2ccccc2)n(C)c2cc(-c3cccnc3)c(O)c(CN(C)C)c12.Cl.Cl (centres unmarked) [1.1.2(42)]
- Therapeutic index SI50 = TC50/IC50 [1]: >5
- IC50 [1]: 18 µM
- CC50 (in vitro): > 100 µM

Structure (SMILES): CCOC(=O)c1c(CN2CCN(C)CC2)n(-c2ccccc2)c2ccc3c(c12)CN(C)CO3 [1.2(1)]
- inhibition (virus influenza A): < 50%

Structure (SMILES): CCCCN1COc2c(Br)cc3c(c2C1)c(C(=O)OCC)c(CSc1ccccc1)n3C [1.2(33)]
- inhibition (virus influenza A): 95%

Structure (SMILES): CCOC(=O)c1c(CSc2ccccc2)n(C)c2cc(-c3cc4ccccc4o3)c(O)c(CN(C)C)c12 [1.1.1(3)]
- inhibition (virus influenza A): 52%

Structure (SMILES): CCOC(=O)c1c(CSc2ccc(Cl)cc2)n(C)c2cc(Br)c3c(c12)CN(C)CO3 [1.2(49)]
- inhibition (virus influenza A): 90%

Structure (SMILES): CCOC(=O)c1c(CNc2ccncc2)n(C)c2cc(Br)c3c(c12)CN(C)CO3 [1.2(18)]
- inhibition (virus influenza A): 100%

Structure (SMILES): CCOC(=O)c1c(CS(=O)(=O)c2ccc(Cl)cc2)n(C)c2cc(Br)c3c(c12)CN(C)CO3 [1.2(43)]
- inhibition (virus influenza A): 77%

Structure (SMILES): CCOC(=O)c1c(CNc2ccc(Cl)cc2)n(C)c2cc(Br)c3c(c12)CN(C)CO3 [1.2(45)]
- inhibition (virus influenza A): 100%

Structure (SMILES): CCOC(=O)c1c(Cn2ccnc2C)n(C)c2cc(Br)c3c(c12)CN(C)CO3 [1.2(19)]
- inhibition (virus influenza A): 88%

Structure (SMILES): CCOC(=O)c1c(CSc2ccccc2)n(C)c2cc(-c3ccc4[nH]ncc4c3)c(O)c(CN(C)C)c12 [1.1.1(6)]
- inhibition (virus influenza A): 58%

Structure (SMILES): CCOC(=O)c1c(CN2CCCCC2C)n(Cc2ccccc2)c2cc(Br)c3c(c12)CN(C)CO3 (centres unmarked) [1.2(13)]
- inhibition (virus influenza A): 77%

Structure (SMILES): CCOC(=O)c1c(CN(C)C)n(C)c2cc(-c3ccccc3)c(O)c(Cn3ccnc3)c12.Cl.Cl [1.1.3(7)]
- Therapeutic index SI50 = TC50/IC50 [1]: >1.4
- IC50 [1]: 72 µM
- CC50 (in vitro): > 100 µM

Structure (SMILES): CCOC(=O)c1c(CNc2ccccc2)n(C)c2cc(Br)c3c(c12)CN(C)CO3 [1.2(44)]
- inhibition (virus influenza A): 100%

Structure (SMILES): CCOC(=O)c1c(COc2ccccc2)n(C)c2cc(-c3cccnc3)c(O)c(CN(C)C)c12 [1.2.1(29)]
- inhibition (virus influenza A): 88%

Structure (SMILES): CCOC(=O)c1c(CSc2cc(C)ccc2C#N)n(C)c2cc(Br)c3c(c12)CN(C)CO3 [1.2(36)]
- inhibition (virus influenza A): < 50%

Structure (SMILES): CCOC(=O)c1c(CN2CCCC2)n(C)c2cc(-c3cccnc3)c(O)c(CN(C)C)c12 [1.1.5(5c), ethyl 4-((dimethylamino)methyl)-5-hydroxy-1-methyl-6-(pyridin-3-yl)-2-(pyrrolidin-1-ylmethyl)-1H-indole-3-carboxylate hydrochloride]
- Therapeutic index SI50 = TC50/IC50 [1]: >20
- IC50 [1]: < 5 µM
- CC50 (in vitro): > 100 µM

Structure (SMILES): CCOC(=O)c1c(CSc2ccccc2)n(C)c2cc(Br)c3c(c12)CN(Cc1ccccc1)CO3 [1.2(35)]
- inhibition (virus influenza A): 98%

Structure (SMILES): CN1COc2c(Br)cc3c(c2C1)c(C(=O)OC1CCCCC1)c(CNc1ccccc1)n3C [1.2(48)]
- inhibition (virus influenza A): 76%

Structure (SMILES): CCOC(=O)c1c(CSc2ccccc2)n(C)c2cc(-c3cncnc3)c(O)c(CN(C)C)c12 [1.1.1(7), ethyl 4-((dimethylamino)methyl)-5-hydroxy-1-methyl-2-(phenylthiomethyl)-6-(pyrimidin-5-yl)-1H-indole-3-carboxylate]
- inhibition (virus influenza A): 62%

Structure (SMILES): CCOC(=O)c1c(CSc2ccccc2)n(C)c2cc(-c3cncnc3)c3c(c12)CN(C)CO3 [1.2.2(7)]
- inhibition (virus influenza A): 88%

Structure (SMILES): CCOC(=O)c1c(CN(C)CCO)n(C)c2cc(Br)c3c(c12)CN(C)CO3 [1.2(16)]
- inhibition (virus influenza A): 90%

Structure (SMILES): COC(=O)c1c(CSc2ccccc2)n(C)c2cc(Br)c3c(c12)CN(C)CO3 [1.2(46)]
- inhibition (virus influenza A): 100%

Structure (SMILES): CCOC(=O)c1c(CNc2ccccc2)n(C)c2cc(-c3ccncc3)c3c(c12)CN(C)CO3 [1.2.3(8)]
- inhibition (virus influenza A): 100%

Structure (SMILES): CCOC(=O)c1c(CSc2ccccc2)n(C)c2cc(-c3ccncc3)c3c(c12)CN(C)CO3 [1.2.2(5)]
- inhibition (virus influenza A): 100%

Structure (SMILES): CCOC(=O)c1c(CNc2ccccc2)n(C)c2cc(C#N)c3c(c12)CN(C)CO3 [1.2(30)]
- inhibition (virus influenza A): < 50%

Structure (SMILES): CCOC(=O)c1c(CSc2ccccc2)n(C)c2cc(-c3cccc(O)c3)c(O)c(CN(C)C)c12 [1.2.1(2)]
- inhibition (virus influenza A): 51%

Structure (SMILES): CCOC(=O)c1c(CSc2ccccc2)n(C)c2cc(-c3cncc4ccccc34)c(O)c(CN(C)C)c12 [1.1.1(9)]
- inhibition (virus influenza A): 88%

Structure (SMILES): CCOC(=O)c1c(CO)n(C)c2cc(-c3cccnc3)c(O)c(CN(C)C)c12.Cl.Cl [1.1.2(35)]
- Therapeutic index SI50 = TC50/IC50 [1]: >16
- IC50 [1]: 6 µM
- CC50 (in vitro): > 100 µM

Structure (SMILES): CCOC(=O)c1c(CSc2cccs2)n(C)c2cc(Br)c3c(c12)CN(C)CO3 [1.2(47)]
- inhibition (virus influenza A): 100%

Structure (SMILES): CCOC(=O)c1c(CN(C)C)n(C)c2cc(C#N)c3c(c12)CN(C)CO3 [1.2(29)]
- IC50 [1]: > 100 µM
- CC50 (in vitro): > 100 µM

Structure (SMILES): CCOC(=O)c1c(CSc2ccccc2)n(C)c2cc(C#N)c(O)c(CN(C)C)c12 [1.1(15)]
- Therapeutic index SI50 = TC50/IC50 [1]: >4
- IC50 [1]: 28 µM
- CC50 (in vitro): > 100 µM

Structure (SMILES): CCOC(=O)c1c(CN(C)C)n(C)c2cc(-c3cccnc3)c3c(c12)CN(C)CO3 [1.2.5(1c), hydrochloride]
- Therapeutic index SI50 = TC50/IC50 [1]: 13
- IC50 ([1]; GETYPE2A): 6 µM
- CC50 (in vitro): 78 µM

Structure (SMILES): CCOC(=O)c1c(CSc2ccccc2)n(C)c2cc(-c3cc4cc(OC)ccc4[nH]3)c(O)c(CN(C)C)c12 [1.1.1(5)]
- inhibition (virus influenza A): 60%

Structure (SMILES): CCOC(=O)c1c(CSc2ccccc2)n(C)c2cc(-c3cccnc3)c3c(c12)CN(C)CO3 [1.2.2(8)]
- inhibition (virus influenza A): 100%

Structure (SMILES): CCCCC1Oc2c(Br)cc3c(c2CN1C)c(C(=O)OCC)c(CSc1ccccc1)n3C (centres unmarked) [1.2(37)]
- inhibition (virus influenza A): 77%

Structure (SMILES): CCOC(=O)c1c(CSc2nc3ccccc3s2)n(-c2ccccc2)c2cc(Br)c3c(c12)CN(C)CO3 [1.2(34)]
- inhibition (virus influenza A): < 50%

Structure (SMILES): CCOC(=O)c1c(CN(C)C)n(-c2ccccc2)c2ccc3c(c12)CN(C)CO3 [1.2(11)]
- inhibition (virus influenza A): 77%

Structure (SMILES): CCOC(=O)c1c(CSc2ccccc2)n(C)c2cc(Br)c3c(c12)CN(C)CO3 [1.2(38)]
- inhibition (virus influenza A): 100%

Structure (SMILES): CCOC(=O)c1c(CSc2ccccc2)n(C2CCCCC2)c2cc(Br)c3c(c12)CN(C)CO3 [1.2(41)]
- inhibition (virus influenza A): 89%

Structure (SMILES): CCOC(=O)c1c(CSc2ccccc2)n(C)c2cc(-c3ccc(OC)nc3)c(O)c(CN(C)C)c12 [1.2.1(8)]
- inhibition (virus influenza A): 81%

Structure (SMILES): CCOC(=O)c1c(CSc2ccccc2)n(C)c2cc(-c3cn[nH]c3)c(O)c(CN(C)C)c12 [1.1.1(2)]
- inhibition (virus influenza A): 63%

Structure (SMILES): CCOC(=O)c1c(CSc2ccccc2)n(C)c2cc(Br)c3c(c12)CN(C)C(c1ccccc1)O3 (centres unmarked) [1.2(39)]
- inhibition (virus influenza A): 62%

Structure (SMILES): CCOC(=O)c1c(CSc2ccccc2)n(C)c2cc(-c3ccccc3)c(O)c(CN(C)C)c12 [1.2.1(1)]
- inhibition (virus influenza A): 96%

Structure (SMILES): CCOC(=O)c1c(CN2CCN(CCO)CC2)n(C)c2cc(Br)c3c(c12)CN(C)CO3 [1.2(14)]
- inhibition (virus influenza A): 95%

Structure (SMILES): CCOC(=O)c1c(CSc2nc3ccccc3[nH]2)n(-c2ccccc2)c2cc(Br)c3c(c12)CN(C)CO3 [1.2(32)]
- inhibition (virus influenza A): 65%

Structure (SMILES): CCOC(=O)c1c(CS(=O)(=O)c2ccccc2)n(C)c2cc(Br)c3c(c12)CN(C)CO3 [1.2(42)]
- inhibition (virus influenza A): 88%

Structure (SMILES): CCOC(=O)c1c(CNc2ccc(C)cc2)n(C)c2cc(Br)c3c(c12)CN(C)CO3 [1.2(26)]
- inhibition (virus influenza A): 100%

Structure (SMILES): CCOC(=O)c1c(CN(C)C)n(C)c2cc(-c3cccnc3)c(O)c(CN3CCCC3)c12.Cl.Cl.Cl [1.1.5(2c), ethyl 2-((dimethylamino)methyl)-5-hydroxy-1-methyl-6-(pyridin-3-yl)-4-(pyrrolidin-1-ylmethyl)-1H-indole-3-carboxylate hydrochloride]
- Therapeutic index SI50 = TC50/IC50 [1]: 11
- IC50 [1]: 7 µM
- CC50 (in vitro): 75 µM

Structure (SMILES): CCOC(=O)c1c(CSc2ccccc2)n(C)c2cc(-c3cccnc3)c(O)c(CN3CCCC(CO)C3)c12 (centres unmarked) [1.2.1(23)]
- inhibition (virus influenza A): 95%

Structure (SMILES): CCOC(=O)c1c(CSc2ccccc2)n(C)c2cc(-c3cc4ccccc4[nH]3)c(O)c(CN(C)C)c12 [1.1.1(4)]
- inhibition (virus influenza A): 66%

Structure (SMILES): CCOC(=O)c1c(CN2CCCCC2)n(Cc2ccccc2)c2cc(Br)c3c(c12)CN(C)CO3 [1.2(7)]
- inhibition (virus influenza A): 100%

Structure (SMILES): CCOC(=O)c1c(CNc2ccccc2)n(C)c2cc(-c3ccccc3)c3c(c12)CN(C)CO3 [1.2.3(7)]
- inhibition (virus influenza A): 90%

Structure (SMILES): Br.Br.CCOC(=O)c1c(CN2CCN(C)CC2)n(-c2ccccc2)c2ccc3c(c12)CN(C)CO3 [1.2(2)]
- % of inhibition of influenza A virus reproduction (virus influenza A; dilution of virus 10^-3): <50%

Structure (SMILES): CCOC(=O)c1c(CSc2ccccc2)n(C)c2cc(-c3ccncc3)c(O)c(CN(C)C)c12 [1.2.1(6)]
- inhibition (virus influenza A): 100%

Structure (SMILES): CCOC(=O)c1c(CN2CCN(C)CC2)n(Cc2ccccc2)c2cc(Br)c3c(c12)CN(C)CO3 [1.2(6)]
- inhibition (virus influenza A): 92%

Structure (SMILES): CCOC(=O)c1c(CSc2ccccc2)n(C)c2cc(Br)c(O)c(CN(C)C)c12.Cl [Arbidol, ethyl 6-bromo-4-[(dimethylamino)methyl]-5-hydroxy-1-methyl-2-(phenylthiomethyl)-1H-indole-3-carboxylate hydrochloride]
- IC50 (influenza virus): 23.2 MκΓ/ml
- TC50 [2]: 15 to 25 µg/mL

Structure (SMILES): CCOC(=O)c1c(CSc2ccccc2)n(C)c2cc(-c3cccc(N(C)C)c3)c(O)c(CN(C)C)c12 [1.2.1(3)]
- inhibition (virus influenza A): 77%
